# Experimental data: publication PMC9466626, “Discovery of new 1H-pyrazolo[3,4-d]pyrimidine derivatives as anticancer agents targeting EGFR^WT and EGFR^T790M” (Journal of Enzyme Inhibition and Medicinal Chemistry, 2022)
# Where “and” joins values, the source holds several entries; their conditions need not be identical. Identical values can stand only once. Like-named read-outs stand apart in the source and are kept apart here.
# Tests used:
# WI-38 = assay: In vitro cytotoxicity against normal cells (MTT), WI-38
# Experimental: (§12) Next, the wells were incubated for 12 h in a 5% CO 2 incubator at 37 °C. Then, for each well, the growth medium was exchanged with 0.1 ml of fresh medium containing graded concentrations of the test compounds to be or equal DMSO and incubated for two days. Then 10 μl MTT solution (5 μg/ml) was added to each well, and the cells were incubated for additional 4 h. The crystals of MTT-formazan were dissolved in 100 μl of DMSO; the absorbance of each well was measured at 490 nm using an automatic ELISA reader system (TECAN, CHE). The IC 50 values were calculated using the nonlinear regression fitting models (Graph Pad, Prism Version 5). The data represented the mean of three independent experiments in triplicate and were expressed as means ± SD.
# Bcl-2 = assay: qRT-PCR gene expression of Bcl-2 in A549 cells; format: cell-based, human; settings: A549, 48 h
# Experimental: (§1) The effect of compound 12b on the expression of BAX and Bcl‐2 was determined using qRT-PCR as described in Supplementary data[60–62].
# A549 cells = assay: Cell cycle analysis (flow cytometry, PI staining); format: cell-based, human
# Experimental: The effect of compound 12b on cell cycle distribution was performed using the propidium iodide (PI) staining technique as described in Supplementary data[56–58]. […]
# 4.1.2. In-vitro DNA-Flow cytometric (cell cycle) analysis.
# h. Then, the tested cells were collected by trypsinization and washed in PBS. Ice-cold absolute
# ethanol was used for fixation of the collected cells. The cells were stained with Cycle TESTTM
# PLUS DNA Reagent Kit (BD Biosciences, San Jose, CA) according to the manufacturer's
# instructions. Cell-cycle distribution was evaluated using a flow cytometer. […]
# BAX/Bcl-2 ratio = BAX/Bcl-2 ratio from qRT-PCR in A549 cells; format: cell-based, human; settings: A549, 48 h, control set to 1
# Experimental: as §1
# EGFR^WT = biological target: T1, EGFR^WT (Homo sapiens, UniProt P00533); assay: EGFR^WT kinase inhibitory assay (HTRF); format: biochemical
# T1 construct: purchased Sigma
# Experimental: (§2) In vitro EGFR inhibitory activity was assessed using a Homogeneous time-resolved fluorescence (HTRF) assay[56] as described in Supplementary data.
# (§3) 4.1.1. EGFRWT and EGFRT790M kinase inhibitory assay […]
# (§4) against four cancer cell lines were further examined for their inhibitory activities against both […]
# (§5) Homogeneous time resolved fluorescence (HTRF) assay was applied in this test. EGFRWT, EGFRT790M (Sigma). firstly, the EGFRWT and/or EGFRT790M and their substrates were incubated with the tested compounds in enzymatic buffer for 5 min. […]
# (§6) the enzymatic reaction. The assay was conducted for 30 min at room temperature. The reaction was stopped by addition of detection reagents which contain EDTA. The detection step continued […]
# (§7) experiments were performed for each concentration. […]
# in vitro = settings: human, WI-38 normal cells
# Experimental: as §12
# HCT-116 = assay: In vitro anti-proliferative MTT assay, HCT-116; format: cell-based, human
# Experimental: The cytotoxic activities of the synthesised compounds were assessed against two human cancer cell lines (lung, A549) and (colon HCT-116) using an MTT assay. These two cell lines were selected in this test due to the overexpression of EGFR in human lung and colon cancer cell lines[48]^,[49]. The tested cells were reported to have a high expression level of EGFR.
# In vitro cytotoxicity was carried out for the synthesised compounds against A549, HCT-116, and WI-38 cell lines using the MTT assay protocol[52–55] as described in Supplementary data. […]
# (§8) 1.1. In vitro antiproliferative activities
# The in vitro antiproliferative activities of all the synthesized compounds against two human tumor cell lines namely, (lung, A549) and (colon HCT-116) and one normal cell line (WI-38) were evaluated quantitatively as described in the literature, using MTT assay protocol . two commercially available drugs (erlotinib) were used in this test as positive controls. The anti-proliferative activity was assessed quantitatively as follows.
# (§9) Human cancer cell lines were dropped in 96 -well plates at a density of 3-8 × 10^3 cells/well.
# (§10) Next, the wells were incubated for 12 h in a 5% CO 2 incubator at 37 °C. Then, for each well, the growth medium was exchanged with 0.1 ml of fresh medium containing graded concentrations of the test compounds to be or equal DMSO and incubated for two days. Then 10 μl MTT solution ([…]) was added to each well, and the cells were incubated for additional 4 h. The crystals of MTT-formazan were dissolved in 100 μl of DMSO; the absorbance of each well was measured at 490 nm using an automatic ELISA reader system (TECAN, CHE). The IC 50 values were calculated using the nonlinear regression fitting models (Graph Pad, Prism Version 5). The data represented the mean of three independent experiments in triplicate and were expressed as means ± SD. The IC50 value was defined as the concentration at which 50% of the cells could survive.
# (§11) The results were expressed as growth inhibitory concentration (IC50) values and […]
# A549 = assay: In vitro anti-proliferative MTT assay, A549; format: cell-based, human; settings: for IC50: Homo sapiens, A549
# Experimental: These two cell lines were selected in this test due to the overexpression of EGFR in human lung and colon cancer cell lines[48]^,[49]. The tested cells were reported to have a high expression level of EGFR. […]
# as §8
# The in vitro antiproliferative activities of all the synthesized compounds against two human […]
# evaluated quantitatively as described in the literature, using MTT assay protocol . two […]
# proliferative activity was assessed quantitatively as follows.
# as §9
# as §10, with “IC50 value was defined as the concentration at which 50% of the cells could survive.” left out
# as §11
# BAX = assay: qRT-PCR gene expression of BAX in A549 cells; format: cell-based, human; settings: A549, 48 h, control set to 1
# Experimental: as §1
# EGFR^T790M = biological target: T2, EGFR^T790M (Homo sapiens, UniProt P00533, T790M); assay: EGFR^T790M kinase inhibitory assay (HTRF); format: biochemical
# T2 construct: purchased Sigma
# Experimental: as §2, §3, §4, §5, §6, §7
# [1] = A549, 8.21 µM, 48 h, mean ± SEM
# [2] = A549, 8.21 µM, 48 h, mean ± SEM, listed as 12 b
# [3] = supplement graph, axis Log (nM)
# T1 sequence (P00533 25-1210): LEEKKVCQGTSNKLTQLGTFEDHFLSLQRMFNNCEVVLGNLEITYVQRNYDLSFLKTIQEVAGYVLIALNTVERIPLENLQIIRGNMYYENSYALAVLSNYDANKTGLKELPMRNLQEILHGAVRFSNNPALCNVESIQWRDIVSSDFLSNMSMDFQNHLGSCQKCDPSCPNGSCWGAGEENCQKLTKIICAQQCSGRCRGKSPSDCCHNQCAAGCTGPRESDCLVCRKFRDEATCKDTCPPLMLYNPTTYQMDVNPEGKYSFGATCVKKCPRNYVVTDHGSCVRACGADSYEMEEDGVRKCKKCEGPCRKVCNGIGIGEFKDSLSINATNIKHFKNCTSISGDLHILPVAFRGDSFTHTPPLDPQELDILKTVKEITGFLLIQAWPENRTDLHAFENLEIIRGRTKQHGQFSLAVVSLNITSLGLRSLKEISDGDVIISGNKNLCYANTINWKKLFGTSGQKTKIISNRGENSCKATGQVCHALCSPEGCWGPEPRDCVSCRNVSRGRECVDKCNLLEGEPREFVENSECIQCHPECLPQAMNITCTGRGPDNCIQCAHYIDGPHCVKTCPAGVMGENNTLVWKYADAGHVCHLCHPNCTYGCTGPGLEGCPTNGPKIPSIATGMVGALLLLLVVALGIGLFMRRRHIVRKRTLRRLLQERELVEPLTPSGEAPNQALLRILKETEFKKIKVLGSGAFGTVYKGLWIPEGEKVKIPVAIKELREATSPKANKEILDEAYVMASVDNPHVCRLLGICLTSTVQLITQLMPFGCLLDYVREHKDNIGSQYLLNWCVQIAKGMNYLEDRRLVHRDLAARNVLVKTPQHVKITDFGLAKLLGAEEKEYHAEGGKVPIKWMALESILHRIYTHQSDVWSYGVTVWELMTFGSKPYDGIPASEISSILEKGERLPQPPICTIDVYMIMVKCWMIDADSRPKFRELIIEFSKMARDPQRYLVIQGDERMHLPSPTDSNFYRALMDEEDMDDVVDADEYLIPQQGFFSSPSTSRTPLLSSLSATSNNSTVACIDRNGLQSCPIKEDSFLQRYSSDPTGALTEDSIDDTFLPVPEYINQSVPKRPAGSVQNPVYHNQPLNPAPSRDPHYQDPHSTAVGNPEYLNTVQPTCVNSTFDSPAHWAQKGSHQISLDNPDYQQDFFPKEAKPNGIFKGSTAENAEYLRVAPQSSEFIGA
# T2 sequence (P00533 25-1210 T790M): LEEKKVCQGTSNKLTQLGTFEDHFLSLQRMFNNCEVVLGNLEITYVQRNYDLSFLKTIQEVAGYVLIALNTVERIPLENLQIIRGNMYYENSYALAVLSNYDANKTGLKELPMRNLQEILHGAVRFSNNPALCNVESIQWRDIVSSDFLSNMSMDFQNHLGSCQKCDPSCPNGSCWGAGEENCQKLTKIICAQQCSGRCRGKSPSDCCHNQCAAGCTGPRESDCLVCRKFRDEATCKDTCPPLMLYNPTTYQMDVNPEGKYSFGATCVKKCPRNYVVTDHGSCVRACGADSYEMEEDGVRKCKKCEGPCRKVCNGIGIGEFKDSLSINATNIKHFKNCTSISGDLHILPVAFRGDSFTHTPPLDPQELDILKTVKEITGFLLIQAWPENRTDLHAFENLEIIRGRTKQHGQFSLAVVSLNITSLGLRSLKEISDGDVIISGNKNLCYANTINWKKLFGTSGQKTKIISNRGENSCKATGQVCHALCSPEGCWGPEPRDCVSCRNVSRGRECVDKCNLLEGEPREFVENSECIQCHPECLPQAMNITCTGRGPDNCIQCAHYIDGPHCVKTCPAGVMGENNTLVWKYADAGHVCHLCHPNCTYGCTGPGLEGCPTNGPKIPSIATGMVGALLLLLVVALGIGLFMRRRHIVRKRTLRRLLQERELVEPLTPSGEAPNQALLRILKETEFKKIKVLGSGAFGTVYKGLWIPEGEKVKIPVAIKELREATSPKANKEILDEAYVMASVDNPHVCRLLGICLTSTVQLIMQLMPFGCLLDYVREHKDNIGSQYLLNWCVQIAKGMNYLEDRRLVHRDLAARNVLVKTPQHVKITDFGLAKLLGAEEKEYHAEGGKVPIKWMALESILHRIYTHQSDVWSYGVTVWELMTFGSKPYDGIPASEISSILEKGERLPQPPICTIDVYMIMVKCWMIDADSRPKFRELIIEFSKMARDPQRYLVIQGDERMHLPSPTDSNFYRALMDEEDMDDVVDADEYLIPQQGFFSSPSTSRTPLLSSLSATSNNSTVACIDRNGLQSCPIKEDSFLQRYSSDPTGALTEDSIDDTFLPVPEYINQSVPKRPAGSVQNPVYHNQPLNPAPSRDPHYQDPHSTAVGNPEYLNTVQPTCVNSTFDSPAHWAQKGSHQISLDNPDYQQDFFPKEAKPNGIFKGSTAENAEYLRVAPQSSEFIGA
structure (smiles),measurement,setting,value
"CC(=NNc1nc(Nc2ccccc2)nc2c1cnn2-c1ccccc1)c1ccc(Cl)cc1 [Compound 12b, 4–(2-(1–(4-Chlorophenyl)ethylidene)hydrazinyl)-N,1-diphenyl-1H-pyrazolo[3,4-d]pyrimidin-6-amine]",Selectivity index (SI) A549,WI-38; cytotoxicity against WI-38 / cytotoxicity against A549,4.77
same,Selectivity index (SI) HCT-116,WI-38; cytotoxicity against WI-38 / cytotoxicity against HCT-116,2.00
same,"HillSlope (best-fit value), WI-38",WI-38; supplement graph,-0.4504
same,"LogIC50 (best-fit value), WI-38",WI-38; supplement graph,1.593
same,Gene expression (Fold Change) Bcl-2,Bcl-2; control set to 1,0.40 ± 0.08 Fold Change
same,fold decrease in Bcl-2 gene expression,Bcl-2; vs untreated,2.5 fold
same,"cell cycle arrest, phases",A549 cells; A549,S and G2/M phases
same,Cell cycle distribution % G2/M,A549 cells; [1],28.55%
same,Cell cycle distribution %G1,A549 cells; [1],28.04%
same,Cell cycle distribution %S,A549 cells; [1],42.39%
same,Cell cycle distribution %Sub-G1,A549 cells; [1],0.89 ± 0.31%
same,Cell cycle distribution % G2/M,A549 cells; [2],28.55 ± 1.61 %
same,Cell cycle distribution %G1,A549 cells; [2],28.04 ± 2.78 %
same,Cell cycle distribution %S,A549 cells; [2],42.39 ± 3.50 %
same,fold decrease in percentage of cells in G1 phase,"A549 cells; vs untreated A549, 48 h",~2 fold
same,fold increase in % G2/M,"A549 cells; vs untreated A549, 48 h",1.7 fold
same,fold increase in percentage of cells in S phase,"A549 cells; vs untreated A549, 48 h",1.5 fold
same,Gene expression (Fold Change) BAX/Bcl-2 ratio,BAX/Bcl-2 ratio,8.8 Fold Change and 8.80 ± 1.41 Fold Change
same,IC50,"EGFR^WT; HTRF, mean of three experiments, read-out: EGFR^WT IC50",16 nM
same,"HillSlope (best-fit value), EGFR inhibition",EGFR^WT; supplement graph,-0.3524
same,"LogIC50 (best-fit value), EGFR inhibition",EGFR^WT; [3],1.193
same,IC50,"EGFR^WT; supplement graph, axis Log (nM), read-out: IC50 (best-fit value of graph), EGFR inhibition",15.6 nM
same,IC50 at 2 days,in vitro,39.1 µM
same,IC50,"HCT-116; Homo sapiens, HCT-116, MTT, mean of three experiments, read-out: In vitro cytotoxicity IC50, HCT-116",19.6 µM
same,"HillSlope (best-fit value), HCT-116",HCT-116; supplement IC50 graph,-0.3805
same,"LogIC50 (best-fit value), HCT-116",HCT-116; supplement IC50 graph,1.291
same,IC50,"A549; MTT, mean of three experiments, read-out: In vitro cytotoxicity IC50, A549",8.21 µM
same,IC50,"A549; supplement IC50 graph, unit inferred, read-out: IC50 (best-fit value of graph), A549",8.22 µM
same,"HillSlope (best-fit value), A549",A549; supplement IC50 graph,-0.3430
same,"LogIC50 (best-fit value), A549",A549; supplement IC50 graph,0.9146
same,Gene expression (Fold Change) BAX,BAX,3.3 Fold Change and 3.33 ± 0.37 Fold Change
same,fold more potent than erlotinib against EGFR^T790M,EGFR^T790M,2.4 fold
same,IC50,"EGFR^T790M; HTRF, mean of three experiments, read-out: EGFR^T790M IC50",236 nM
same,"HillSlope (best-fit value), EGFRT790M inhibition",EGFR^T790M; supplement graph,-0.3418
same,"LogIC50 (best-fit value), EGFRT790M inhibition",EGFR^T790M; [3],2.372
same,IC50,"EGFR^T790M; supplement graph, axis Log (nM), read-out: IC50 (best-fit value of graph), EGFRT790M inhibition",235 nM
